Data published in ChEMBL document CHEMBL1140295, “Synthesis and monoamine transporter binding properties of 2,3-diaryltropanes” (J Med Chem, 2005).

How the values were obtained:
[1] = molecular target: Sodium-dependent serotonin transporter (Homo sapiens, UniProt P31645); assay: Displacement of [3H]paroxetine from 5HTT
[2] = molecular target: Sodium-dependent dopamine transporter (Homo sapiens, UniProt Q01959); assay: Displacement of [3H]WIN-35428 from DAT
[3] = molecular target: Sodium-dependent noradrenaline transporter (Homo sapiens, UniProt P23975); assay: Displacement of [3H]nisoxetine from NET
[4] = species on record: Homo sapiens; assay: Selectivity for DAT over 5HTT
[5] = species on record: Homo sapiens; assay: Selectivity for DAT over NET

Sodium-dependent dopamine transporter, sequence (Q01959 whole entry): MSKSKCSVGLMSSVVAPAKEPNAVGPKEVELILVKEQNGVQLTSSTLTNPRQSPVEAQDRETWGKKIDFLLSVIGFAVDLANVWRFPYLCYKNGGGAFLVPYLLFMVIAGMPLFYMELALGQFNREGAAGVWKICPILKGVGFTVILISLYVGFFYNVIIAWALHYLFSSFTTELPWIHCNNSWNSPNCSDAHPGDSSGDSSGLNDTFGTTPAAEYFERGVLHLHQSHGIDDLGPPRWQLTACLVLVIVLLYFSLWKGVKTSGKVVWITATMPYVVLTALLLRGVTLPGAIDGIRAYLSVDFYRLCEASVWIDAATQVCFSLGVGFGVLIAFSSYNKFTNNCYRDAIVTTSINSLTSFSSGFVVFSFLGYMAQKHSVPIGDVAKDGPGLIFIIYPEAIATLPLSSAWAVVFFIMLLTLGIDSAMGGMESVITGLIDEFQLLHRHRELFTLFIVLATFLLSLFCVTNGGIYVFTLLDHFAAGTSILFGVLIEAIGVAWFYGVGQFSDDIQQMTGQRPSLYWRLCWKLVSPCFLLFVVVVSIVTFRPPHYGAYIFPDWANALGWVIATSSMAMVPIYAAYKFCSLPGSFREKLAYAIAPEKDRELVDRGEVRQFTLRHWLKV
Sodium-dependent noradrenaline transporter, sequence (P23975 whole entry): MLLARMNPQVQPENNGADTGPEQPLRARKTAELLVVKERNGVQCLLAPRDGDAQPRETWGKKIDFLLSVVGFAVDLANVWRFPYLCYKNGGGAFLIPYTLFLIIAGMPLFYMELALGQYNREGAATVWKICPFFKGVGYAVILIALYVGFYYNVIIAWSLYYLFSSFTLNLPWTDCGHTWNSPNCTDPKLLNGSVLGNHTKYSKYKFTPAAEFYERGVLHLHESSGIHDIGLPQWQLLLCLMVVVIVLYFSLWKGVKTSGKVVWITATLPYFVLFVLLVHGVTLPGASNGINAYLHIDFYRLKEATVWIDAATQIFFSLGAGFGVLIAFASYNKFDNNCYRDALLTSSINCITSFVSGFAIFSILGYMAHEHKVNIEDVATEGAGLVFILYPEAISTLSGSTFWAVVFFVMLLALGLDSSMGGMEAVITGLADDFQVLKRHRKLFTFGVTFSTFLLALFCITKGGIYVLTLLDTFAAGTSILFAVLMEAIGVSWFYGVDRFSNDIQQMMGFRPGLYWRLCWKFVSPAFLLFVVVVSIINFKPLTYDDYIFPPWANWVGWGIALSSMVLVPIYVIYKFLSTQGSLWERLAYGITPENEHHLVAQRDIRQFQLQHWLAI
Sodium-dependent serotonin transporter, sequence (P31645 whole entry): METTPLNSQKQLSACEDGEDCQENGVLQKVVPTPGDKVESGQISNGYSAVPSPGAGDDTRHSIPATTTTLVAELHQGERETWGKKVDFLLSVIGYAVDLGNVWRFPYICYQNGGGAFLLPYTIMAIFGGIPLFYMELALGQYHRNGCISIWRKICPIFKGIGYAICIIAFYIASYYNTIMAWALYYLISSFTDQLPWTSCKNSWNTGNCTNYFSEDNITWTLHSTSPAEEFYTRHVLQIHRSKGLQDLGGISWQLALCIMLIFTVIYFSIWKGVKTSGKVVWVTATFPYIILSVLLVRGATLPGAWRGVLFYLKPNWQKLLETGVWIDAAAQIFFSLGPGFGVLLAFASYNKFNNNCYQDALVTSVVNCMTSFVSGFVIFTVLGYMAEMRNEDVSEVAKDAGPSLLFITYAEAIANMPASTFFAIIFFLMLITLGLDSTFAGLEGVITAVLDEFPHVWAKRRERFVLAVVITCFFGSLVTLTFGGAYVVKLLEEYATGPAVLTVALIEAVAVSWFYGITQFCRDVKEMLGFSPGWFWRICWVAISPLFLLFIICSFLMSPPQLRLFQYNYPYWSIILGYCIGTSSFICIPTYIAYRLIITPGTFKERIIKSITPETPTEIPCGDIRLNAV

With `COc1ccc([C@H]2C3CCC(C[C@H]2c2ccc(C)cc2)N3C)cc1` (some centres not stated) as the molecule, how does the IC50 [1] read?
Its IC50 is 1530 nM.

What about the Ki [1] of the same molecule?
The Ki was 376 nM.

And the IC50 [2]?
Its IC50 is 238 nM.

For `CN1C2CCC1[C@@H](c1ccccc1)[C@@H](c1ccccc1)C2` (some centres not stated), which IC50 [3] is on record?
The IC50 was 920 nM.

What about the Ki [3] of the same molecule?
The Ki was 550 nM.

And the IC50 [1]?
The IC50 was 21000 nM.

What about the Ki [1] of the same molecule?
Its Ki is 1900 nM.

And the IC50 [2]?
The IC50 was 12.6 nM.

How did the IC50 [3] turn out when `Cc1ccc([C@@H]2C3CCC(C[C@@H]2c2ccccc2)N3C)cc1` (some centres not stated) was run?
Its IC50 is 6100 nM.

And the Ki [3]?
The Ki was 3700 nM.

What about the IC50 [1] of the same molecule?
Its IC50 is 45000 nM.

And the Ki [1]?
Its Ki is 4100 nM.

And the IC50 [2]?
The IC50 was 22.4 nM.

Which results are given for `COc1ccc([C@@H]2C3CCC(C[C@H]2c2ccc(C)cc2)N3C)cc1OC` (some centres not stated)?
IC50 [3]: 78000 nM; Ki [3]: 46000 nM; IC50 [1]: 16200 nM; Ki [1]: 1470 nM; IC50 [2]: 980 nM

With `Cc1ccc([C@@H]2CC3CCC([C@@H]2c2ccc(C)cc2)N3C)cc1` (some centres not stated) as the molecule, how does the IC50 [3] read?
Its IC50 is 13000 nM.

And the Ki [3]?
Its Ki is 7800 nM.

What about the IC50 [1] of the same molecule?
The IC50 was 10000 nM.

What about the Ki [1] of the same molecule?
Its Ki is 910 nM.

`COc1ccc([C@@H]2C3CCC(C[C@@H]2c2ccc(C)cc2)N3C)cc1` (some centres not stated) was tested. Which IC50 [3] did it give?
Its IC50 is 282 nM.

And the Ki [3]?
Its Ki is 191 nM.

And the IC50 [1]?
Its IC50 is 1670 nM.

What about the Ki [1] of the same molecule?
Its Ki is 410 nM.

What about the IC50 [2] of the same molecule?
Its IC50 is 1.23 nM.

`Cc1ccc([C@H]2CC3CCC([C@H]2c2ccc(F)cc2)N3C)cc1` (some centres not stated) was tested. Which IC50 [3] did it give?
The IC50 was 132 nM.

What about the Ki [3] of the same molecule?
Its Ki is 61 nM.

And the IC50 [1]?
The IC50 was 100 nM.

What about the Ki [1] of the same molecule?
The Ki was 25 nM.

What about the IC50 [2] of the same molecule?
The IC50 was 0.9 nM.

Which results are given for `Cc1ccc([C@H]2C3CCC(C[C@H]2c2ccccc2)N3C)cc1` (some centres not stated)?
IC50 [3]: 4700 nM; Ki [3]: 2800 nM; IC50 [1]: 11000 nM; Ki [1]: 1000 nM; IC50 [2]: 540 nM

`CN1C2CCC1[C@H](c1ccccc1)[C@H](c1ccccc1)C2` (some centres not stated) was tested. Which IC50 [3] did it give?
The IC50 was 1040 nM.

And the Ki [3]?
Its Ki is 626 nM.

And the IC50 [1]?
The IC50 was 41000 nM.

What about the Ki [1] of the same molecule?
The Ki was 3700 nM.

What about the IC50 [2] of the same molecule?
The IC50 was 690 nM.

Which IC50 [3] does the source give for `Cc1ccc([C@H]2CC3CCC([C@H]2c2ccccc2)N3C)cc1` (some centres not stated) here?
Its IC50 is 480 nM.

What about the Ki [3] of the same molecule?
Its Ki is 280 nM.

And the IC50 [1]?
Its IC50 is 1100 nM.

And the Ki [1]?
Its Ki is 100 nM.

What about the IC50 [2] of the same molecule?
The IC50 was 1.96 nM.

With `COC(=O)[C@@H]1C2CC[C@H](C[C@@H]1c1ccc(C)cc1)N2C` as the molecule, how does the IC50 [3] read?
Its IC50 is 3850 nM.

What about the Ki [3] of the same molecule?
Its Ki is 1930 nM.

What about the IC50 [2] of the same molecule?
The IC50 was 23.4 nM.

Which IC50 [3] does the source give for `Cc1ccc([C@@H]2CC3CCC([C@@H]2c2ccccc2)N3C)cc1` (some centres not stated) here?
The IC50 was 4850 nM.

What about the Ki [3] of the same molecule?
Its Ki is 2920 nM.

And the IC50 [1]?
The IC50 was 16000 nM.

And the Ki [1]?
The Ki was 1500 nM.

And the IC50 [2]?
Its IC50 is 430 nM.

How did the IC50 [3] turn out when `COc1ccc([C@@H]2C3CCC(C[C@@H]2c2ccc(C)cc2)N3C)cc1OC` (some centres not stated) was run?
Its IC50 is 10000 nM.

What about the Ki [3] of the same molecule?
Its Ki is 6000 nM.

What about the IC50 [1] of the same molecule?
Its IC50 is 13700 nM.

And the Ki [1]?
The Ki was 1250 nM.

And the IC50 [2]?
The IC50 was 23.3 nM.

How did the Selectivity ratio [4] turn out when `Cc1ccc([C@H]2CC3CCC([C@H]2c2ccc(C)cc2)N3C)cc1` (some centres not stated) was run?
The Selectivity ratio was 185.

What about the IC50 [3] of the same molecule?
The IC50 was 780 nM.

What about the Ki [3] of the same molecule?
Its Ki is 390 nM.

And the Selectivity ratio [5]?
Its Selectivity ratio is 289.

What about the IC50 [1] of the same molecule?
Its IC50 is 1010 nM.

And the Ki [1]?
Its Ki is 250 nM.

And the IC50 [2]?
Its IC50 is 1.35 nM.
